# In PMC3469748 (Molecular and cellular biochemistry, 2012):
# Key:
# [1] = biological target: T1, thioredoxin reductase 1 (TrxR) (Rattus norvegicus, UniProt O89049); assay: DTNB reduction assay
# T1 sequence (O89049 1-499): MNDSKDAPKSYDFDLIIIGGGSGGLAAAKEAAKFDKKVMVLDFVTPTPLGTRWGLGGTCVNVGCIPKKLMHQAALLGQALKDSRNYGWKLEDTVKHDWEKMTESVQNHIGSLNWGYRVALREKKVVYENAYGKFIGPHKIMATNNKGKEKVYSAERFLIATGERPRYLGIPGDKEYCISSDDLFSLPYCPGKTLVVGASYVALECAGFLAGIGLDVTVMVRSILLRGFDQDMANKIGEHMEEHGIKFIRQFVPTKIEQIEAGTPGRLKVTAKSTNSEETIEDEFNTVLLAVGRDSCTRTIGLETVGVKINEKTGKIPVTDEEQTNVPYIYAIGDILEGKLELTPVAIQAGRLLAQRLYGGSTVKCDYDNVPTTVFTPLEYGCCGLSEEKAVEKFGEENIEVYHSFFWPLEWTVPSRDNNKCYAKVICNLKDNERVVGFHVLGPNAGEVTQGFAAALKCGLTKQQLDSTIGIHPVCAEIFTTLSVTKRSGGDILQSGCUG
# [2] = biological target: T1, thioredoxin reductase 1 (TrxR); assay: biochemical
Structure (SMILES),IC50 [1],IC50 [2]
CNC(=O)N(NS(C)(=O)=O)S(C)(=O)=O [101MDCE],5.37 ± 0.58 µM,–
"O=NN(CCCl)C(=O)NCCCl [Carmustine, 1,3-bis(2-chloroethyl)-1-nitrosourea]",–,7.63 ± 0.72 µM
"CNC(=O)N(N(CCCl)S(C)(=O)=O)S(C)(=O)=O [Laromustine, 1,2-bis(methylsulfonyl)-1-(2-chloroethyl)-2-[(methylamino)carbonyl]hydrazine]",4.65 ± 0.37 µM,–
